Patent US20140093513A1, “METHODS OF LOWERING PROPROTEIN CONVERSATE SUBTILISIN/KEXIN TYPE 9 (PCSK9)” (Catabasis Pharmaceuticals, Inc., priority 2012, published 2014)
pIC50: −log10 of the molar value.

tested on: PCSK9; assay: PCSK9 secretion assay in HepG2 cells (PCSK9 ELISA); assay type: cell-based; conditions: HepG2 cells, 16 hours incubation, at least 6 concentrations
Procedure: HepG2 cells (from ATCC, Catalog no. HB-8065) were maintained in DMEM (Invitrogen) supplemented with 10% fetal bovine serum (Invitrogen). The day prior to the PCSK9 assay, cells are seeded in 96-well collagen coated plates at 25,000 cells/well.
The compounds of the invention were stored at −20° C. until used. The test article compound was dissolved in 100% ethanol to a 50 mM stock solution. This was then diluted in FBS to a final concentration of 1 mM. This solution was placed in a sonicating water bath for 30 minutes. Subsequent dilutions were then made in FBS supplemented with an equivalent volume of ethanol and mixed by vortexing.
HepG2 cells were seeded onto a collagen coated 96-well plate (Becton Dickinson, Catalog no. 35-4407) the day prior to the assay, as described above. The next day, the cell medium was removed, washed once with 100 μL serum free DMEM to remove any residual PCSK9, and replaced with 90 μL of serum free DMEM. Ten microliters of each compound concentration prepared in FBS was then added. Each concentration of compound was tested in triplicate. The compound was incubated with the cells overnight for 16 hours. Following this incubation, 10 μL of AlamarBlue was added to each well and cells incubated for another 2 hours. The plates were then removed and AlamarBlue fluorescence was measured (excitation, 550 nm and […]) to assess cell viability. Cell culture supernatant was then diluted […] 1×RDSP Calibrator Diluent and PCSK9 ELISA was then performed with 50 μL of this diluted sample, as per the manufacturer's instructions. The ELISA was measured on a Victor X5 multilabel plate reader (PerkinElmer) at an absorbance of 450 nm with background correction measured at 550 nm (The PCSK9 Elisa kits can be purchased from R&D System, Catalog no. DPC900).
Alternatively, an IC50 could also be obtained when this type of assay was carried out using at least 6 different concentrations of the test compounds. Table 1 lists the IC50 values for the compounds tested in this assay.

First: CC/C=C\C/C=C\C/C=C\C/C=C\C/C=C\CCCC(=O)NCCNC(=O)CNC(=O)c1cccnc1 [Compound I-30, N-(2-((2-((5Z,8Z,11Z,14Z,17Z)-icosa-5,8,11,14,17-pentaenamido)ethyl)amino)-2-oxoethyl)nicotinamide]
Second: CC/C=C\C/C=C\C/C=C\C/C=C\C/C=C\CCCC(=O)NCCNC(=O)c1ccncc1 [II-8, N-(2-((5Z,8Z,11Z,14Z,17Z)-icosa-5,8,11,14,17-pentaenamido)ethyl)isonicotinamide]
The pIC50 of the first is higher: 4.30 to 4.60 for the first, less than 4.30 for the second. The first is the more potent here.

CC/C=C\C/C=C\C/C=C\C/C=C\C/C=C\CCCC(=O)N1CCC(CNC(=O)c2cccnc2)CC1 [Compound I-31, N-((1-((5Z,8Z,11Z,14Z,17Z)-icosa-5,8,11,14,17-pentaenoyl)piperidin-4-yl)methyl)nicotinamide] and CC/C=C\C/C=C\C/C=C\C/C=C\C/C=C\CCCC(=O)N1CCC[C@H]1CNC(=O)c1cccnc1 [Compound I-34, N—(((S)-1-((5Z,8Z,11Z,14Z,17Z)-icosa-5,8,11,14,17-pentaenoyl)pyrrolidin-2-yl)methyl)nicotinamide] cannot be ordered by pIC50: greater than 4.60 for the first, greater than 4.60 for the second.

CC/C=C\C/C=C\C/C=C\C/C=C\C/C=C\CCCC(=O)NC[C@@H]1CCCN1C(=O)c1cccnc1 [Compound I-32, (5Z,8Z,11Z,14Z,17Z)—N—(((S)-1-nicotinoylpyrrolidin-2-yl)methyl)icosa-5,8,11,14,17-pentaenamide] and CC/C=C\C/C=C\C/C=C\C/C=C\C/C=C\CCCC(=O)NC[C@H]1CCCN1C(=O)c1cccnc1 [Compound I-33, (5Z,8Z,11Z,14Z,17Z)—N—(((R)-1-nicotinoylpyrrolidin-2-yl)methyl)icosa-5,8,11,14,17-pentaenamide] cannot be ordered by pIC50: greater than 4.60 for the first, greater than 4.60 for the second.

Going from CC/C=C\C/C=C\C/C=C\C/C=C\C/C=C\CCCC(=O)N[C@H]1CC[C@H](CNC(=O)c2cccnc2)CC1 [Compound I-41, N-(((1R,4R)-4-((5Z,8Z,11Z,14Z,17Z)-icosa-5,8,11,14,17-pentaenamido)cyclohexyl)methyl)nicotinamide] to CC/C=C\C/C=C\C/C=C\C/C=C\C/C=C\CCCC(=O)N[C@H]1CC[C@H](NC(=O)c2cccnc2)CC1 [Compound I-42, N-((1R,4R)-4-((5Z,8Z,11Z,14Z,17Z)-icosa-5,8,11,14,17-pentaenamido)cyclohexyl)nicotinamide], the pIC50 falls from greater than 4.60 to less than 4.30.

First: CC/C=C\C/C=C\C/C=C\C/C=C\C/C=C\CCCC(=O)N(C)CC1CCN(C(=O)c2cccnc2)CC1 [Compound I-48, (5Z,8Z,11Z,14Z,17Z)—N-methyl-N-((1-nicotinoylpiperidin-4-yl)methyl)icosa-5,8,11,14,17-pentaenamide]
Second: CC/C=C\C/C=C\C/C=C\C/C=C\C/C=C\CCCC(=O)N(C)[C@H]1CCN(C(=O)c2cccnc2)C1 [Compound I-49, (5Z,8Z,11Z,14Z,17Z)—N-methyl-N—((S)-1-nicotinoylpyrrolidin-3-yl)icosa-5,8,11,14,17-pentaenamide]
The pIC50 of the first is higher: greater than 4.60 for the first, 4.30 to 4.60 for the second. The first is the more potent here.

First: CC/C=C\C/C=C\C/C=C\C/C=C\C/C=C\CCCC(=O)NCCNC(=O)c1ccccc1NC(=O)c1cccnc1 [Compound I-59, N-(2-((2-((5Z,8Z,11Z,14Z,17Z)-icosa-5,8,11,14,17-pentaenamido)ethyl)carbamoyl)phenyl)nicotinamide]
Second: CC/C=C\C/C=C\C/C=C\C/C=C\C/C=C\CCCC(=O)NCCNC(=O)c1cncc(-c2ccccc2)c1 [VI-2, N-(2-((5Z,8Z,11Z,14Z,17Z)-icosa-5,8,11,14,17-pentaenamido)ethyl)-5-phenylnicotinamide]
The pIC50 of the first is lower: less than 4.30 for the first, 4.30 to 4.60 for the second.

CC/C=C\C/C=C\C/C=C\C/C=C\C/C=C\CCCC(=O)N1CCN(C(=O)c2ccccc2NC(=O)c2cccnc2)CC1 [Compound I-60, N-(2-(4-((5Z,8Z,11Z,14Z,17Z)-icosa-5,8,11,14,17-pentaenoyl)piperazine-1-carbonyl)phenyl)nicotinamide] and CC/C=C\C/C=C\C/C=C\C/C=C\C/C=C\CCCC(=O)N1CC[C@H](N(C)C(=O)c2cccnc2)C1 [Compound I-61, N—((S)-1-((5Z,8Z,11Z,14Z,17Z)-icosa-5,8,11,14,17-pentaenoyl)pyrrolidin-3-yl)-N-methylnicotinamide] cannot be ordered by pIC50: less than 4.30 for the first, less than 4.30 for the second.

CC/C=C\C/C=C\C/C=C\C/C=C\C/C=C\CCCC(=O)Nc1nc(C)ncc1CNC(=O)c1cccnc1 [Compound I-64, N-((4-((5Z,8Z,11Z,14Z,17Z)-icosa-5,8,11,14,17-pentaenamido)-2-methylpyrimidin-5-yl)methyl)nicotinamide] and CC/C=C\C/C=C\C/C=C\C/C=C\C/C=C\CCCC(=O)NCCNC(=O)c1ccccc1 [II-1, N-(2-((5Z,8Z,11Z,14Z,17Z)-icosa-5,8,11,14,17-pentaenamido)ethyl)benzamide] fall in the same range of pIC50: 4.30 to 4.60 for the first, 4.30 to 4.60 for the second.

Compared with CC/C=C\C/C=C\C/C=C\C/C=C\C/C=C\CCCC(=O)NCCNC(=O)c1ccc(CCN2CCOCC2)nc1 [Compound V-2, N-(2-((5Z,8Z,11Z,14Z,17Z)-icosa-5,8,11,14,17-pentaenamido)ethyl)-6-(2-morpholinoethyl)nicotinamide], CC/C=C\C/C=C\C/C=C\C/C=C\C/C=C\CCCC(=O)NCCNC(=O)c1ccc(CCN2CCCC2)nc1 [Compound V-8, N-(2-((5Z,8Z,11Z,14Z,17Z)-icosa-5,8,11,14,17-pentaenamido)ethyl)-6-(2-(pyrrolidin-1-yl)ethyl)nicotinamide] is higher in pIC50: 4.30 to 4.60 for the first, greater than 4.60 for the second. The second is the more potent here.

CC/C=C\C/C=C\C/C=C\C/C=C\C/C=C\CCCC(=O)NCCNC(=O)c1ccc(=O)n(C)c1 [II-7, N-(2-((5Z,8Z,11Z,14Z,17Z)-icosa-5,8,11,14,17-pentaenamido)ethyl)-1-methyl-6-oxo-1,6-dihydropyridine-3-carboxamide] and CC/C=C\C/C=C\C/C=C\C/C=C\C/C=C\CCCC(=O)NCCNC(=O)c1cnccc1O [VI-1, 4-hydroxy-N-(2-((5Z,8Z,11Z,14Z,17Z)-icosa-5,8,11,14,17-pentaenamido)ethyl)nicotinamide] cannot be ordered by pIC50: less than 4.30 for the first, less than 4.30 for the second.

First: CC/C=C\C/C=C\C/C=C\C/C=C\C/C=C\CCCC(=O)NCCNC(=O)c1ccccn1 [II-9, N-(2-((5Z,8Z,11Z,14Z,17Z)-icosa-5,8,11,14,17-pentaenamido)ethyl)picolinamide]
Second: CC/C=C\C/C=C\C/C=C\C/C=C\C/C=C\CCCC(=O)NCCNC(=O)c1ccncn1 [II-10, N-(2-((5Z,8Z,11Z,14Z,17Z)-icosa-5,8,11,14,17-pentaenamido)ethyl)pyrimidine-4-carboxamide]
The pIC50 of the first is higher: 4.30 to 4.60 for the first, less than 4.30 for the second.

First: CC/C=C\C/C=C\C/C=C\C/C=C\C/C=C\CCCC(=O)NCCNC(=O)c1cnccn1 [II-11, N-(2-((5Z,8Z,11Z,14Z,17Z)-icosa-5,8,11,14,17-pentaenamido)ethyl)pyrazine-2-carboxamide]
Second: CC/C=C\C/C=C\C/C=C\C/C=C\C/C=C\CCCC(=O)NCCNC(=O)C(C)(C)Oc1ccc(Cl)cc1 [II-33, (5Z,8Z,11Z,14Z,17Z)—N-(2-(2-(4-chlorophenoxy)-2-methylpropanamido)ethyl)icosa-5,8,11,14,17-pentaenamide]
The pIC50 of the first is lower: less than 4.30 for the first, greater than 4.60 for the second. The second is the more potent here.

CC/C=C\C/C=C\C/C=C\C/C=C\C/C=C\C/C=C\CCC(=O)NCCNC(=O)C(C)(C)CCCOc1cc(C)ccc1C [II-34, (4Z,7Z,10Z,13 Z,16Z,19Z)—N-(2-(5-(2,5-dimethylphenoxy)-2,2-dimethylpentanamido)ethyl)docosa-4,7,10,13,16,19-hexaenamide] and CC/C=C\C/C=C\C/C=C\C/C=C\C/C=C\C/C=C\CCC(=O)NCCNC(=O)C(C)(C)Oc1ccc(C(=O)c2ccc(Cl)cc2)cc1 [II-36, (4Z,7Z,10Z,13Z,16Z,19Z)—N-(2-(2-(4-(4-chlorobenzoyl)phenoxy)-2-methylpropanamido)ethyl)docosa-4,7,10,13,16,19-hexaenamide] cannot be ordered by pIC50: greater than 4.60 for the first, greater than 4.60 for the second.

Going from CC/C=C\C/C=C\C/C=C\C/C=C\C/C=C\CCCC(=O)NCCNC(=O)C(C)(C)Oc1ccc(CCNC(=O)c2ccc(Cl)cc2)cc1 [II-39, 4-chloro-N-(4-((1-((2-((5Z,8Z,11Z,14Z,17Z)-icosa-5,8,11,14,17-pentaenamido)ethyl)amino)-2-methyl-1-oxopropan-2-yl)oxy)phenethyl)benzamide] to CC/C=C\C/C=C\C/C=C\C/C=C\C/C=C\CCCC(=O)NCCOCCOCCOC [III-2, (5Z,8Z,11Z,14Z,17Z)—N-(2-(2-(2-methoxyethoxy)ethoxy)ethyl)icosa-5,8,11,14,17-pentaenamide], the pIC50 falls from greater than 4.60 to less than 4.30. The first is the more potent here.

Going from CC/C=C\C/C=C\C/C=C\C/C=C\C/C=C\C/C=C\CCC(=O)NCCOCCOCCOC [III-1, (4Z,7Z,10Z,13Z,16Z,19Z)—N-(2-(2-(2-methoxyethoxy)ethoxy)ethyl)docosa-4,7,10,13,16,19-hexaenamide] to CC/C=C\C/C=C\C/C=C\C/C=C\C/C=C\C/C=C\CCC(=O)NCCOCCOCCOCCOC [III-3, (4Z,7Z,10Z,13Z,16Z,19Z)—N-(2,5,8,11-tetraoxamidecan-13-yl)docosa-4,7,10,13,16,19-hexaenamide], the pIC50 rises from less than 4.30 to greater than 4.60.

same assay, conditions: HepG2 cells, at 25 and 50 μM, FIG. 1

For CC/C=C\C/C=C\C/C=C\C/C=C\C/C=C\CCCC(=O)NCCNC(=O)c1ccccc1 [II-1, N-(2-((5Z,8Z,11Z,14Z,17Z)-icosa-5,8,11,14,17-pentaenamido)ethyl)benzamide], the “lowering of PCSK9” value was “significant lowering of PCSK9”.
